{"source": "paper PMC11313193", "about": "“Which Constituents Determine the Antioxidant Activity and Cytotoxicity of Garlic? Role of Organosulfur Compounds and Phenolics” (International Journal of Molecular Sciences, 2024)", "key": {"[1]": {"assay": "ABTS^● decolorization assay", "details": "30 min incubation at room temperature, absorbance at 734 nm", "protocol": "A modification of the ABTS^● decolorization assay was employed. Briefly, various volumes of solutions of the studied compounds were introduced to wells of a 96-well microplate, each prefilled 200 μL of ABTS^● solution. […] The drop in absorbance after 30 min incubation at room temperature was read as a measure of the antioxidant activity.\n(§1) All assays were standardized with respect to Trolox. The antioxidant activity was calculated in each case as a ratio of the slope of the dependence of absorbance change on the concentration of a studied compound to the slope of the dependence of absorbance change of standard samples concerning Trolox on the concentration of Trolox. Antioxidant activities were expressed in moles of Trolox equivalents (TE)/mol of a studied compound, as described previously."}, "[2]": {"assay": "DPPH^● decolorization assay", "details": "30 min at ambient temperature in the dark, absorbance at 517 nm", "protocol": "The assay was performed as described in a previous article. Briefly, increasing volumes of solutions of the studied compounds were introduced to wells of a 96-well microplate, each with 200 μL of 0.3 mM DPPH^● solution in methanol. The reaction was allowed to proceed for 30 min at ambient temperature in the dark, and absorbance at 517 nm was read. The absorbance decrease was a measure of the antioxidant activity.\nas §1"}, "[3]": {"assay": "Ferric reducing antioxidant power (FRAP) assay", "details": "30 min at ambient temperature, pH 3.6, absorbance at 593 nm", "protocol": "The method proposed by Benzie and Strain [91] was employed with a slight modification. Briefly, increasing volumes of solutions of the studied compounds were added to wells of a 96-well microplate prefilled with 200 μL of the working solution composed of 0.3 M acetate buffer, pH 3.6 (10 volumes), 10 mM 2,4,6-tris(2-pyridyl)-s-triazine (TPTZ), in 40 mM HCl (1 volume) and 20 mM FeCl3 (1 volume), was prepared immediately before use. After 30 min incubation at ambient temperature and the absorbance of the Fe^2+-TPTZ complex was read at 593 nm.\nas §1"}, "[4]": {"system": "SKOV-3 ovarian cancer cells", "assay": "Cytotoxicity (Neutral Red), SKOV-3 cells", "format": "cell-based, human", "details": "24 h exposure", "protocol": "(§2) The PEO1 cells, SKOV-3 cells, and MRC-5 cells were grown at 37 °C and 5% CO2 in RPMI + GlutaMAX medium, McCoy’s 5A medium, and the DMEM + GlutaMAX medium, respectively. The media were supplemented with 10% heat-inactivated fetal calf serum and penicillin/streptomycin. The cell viability was evaluated using the Trypan Blue exclusion test.\n(§3) In the cytotoxicity experiments, cells were grown in wells of sterile 96-well plates. The seeding density was 1 × 10^4 for SKOV-3 and MRC-5 cells and 1.5 × 10^4 for PEO1 cells. The cells were allowed to grow in the incubator for 24 h. Then, the medium was removed and new medium with an examined compound was added. The stock solutions of the compounds studied diluted with the appropriate cell medium were filtered before the addition to the cells using 0.22 µm filters. No more than 0.02% of DMSO was present in the media, and it had no discernible impact on the treated cells. Cells not exposed to any compound served as a control. After another 24 h incubation, the medium was gently aspirated, and the wells were added with 2% sterile Neutral Red solution (100 µL). The plates were then incubated (37 °C, 5% CO2) for one hour. The Neutral Red solution was aspirated, and the wells were washed two times with warm (37 °C) PBS. Subsequently, 100 µL of a permeabilization mixture (water/ethanol/glacial acetic acid, 50/49/1, v/v/v) was introduced to each well. The plates were shaken at 700 rpm for 20 min and absorbance was read at a wavelength of 540 nm against 620 nm."}, "[5]": {"system": "PEO1 ovarian cancer cells", "assay": "Cytotoxicity (Neutral Red), PEO1 cells", "format": "cell-based, human", "details": "24 h exposure", "protocol": "as §2, §3"}, "MRC-5 fibroblasts": {"system": "MRC-5 fibroblasts", "assay": "Cytotoxicity (Neutral Red), MRC-5 fibroblasts", "format": "cell-based, human", "details": "24 h exposure", "protocol": "as §2, §3"}, "[6]": {"parameters": "method as in PMID 17312965", "details": "cited from earlier work"}, "[7]": {"system": "microsomal lipid peroxidation", "parameters": "method as in PMID 16822206", "details": "cited from earlier work"}, "[8]": {"system": "cervical squamous carcinoma SiHa cells", "parameters": "method as in PMID 30783417", "details": "50 nM, 24 h exposure; cited from earlier work"}, "[9]": {"system": "gastric carcinoma AGS cells", "parameters": "method as in PMID 15911108", "details": "24 h exposure, cited from earlier work"}, "[10]": {"system": "MDA-MB-231 breast cancer cells", "parameters": "method as in PMID 34626309", "details": "24 h exposure, cited from earlier work"}, "[11]": {"system": "MCF-7 breast cancer cells", "parameters": "method as in PMID 34626309", "details": "24 h exposure, cited from earlier work"}, "SKOV-3 cells [12]": {"system": "SKOV-3 cells", "parameters": "method as in PMID 25097657", "details": "24 h exposure, cited from earlier work"}, "U251 glioma cells": {"system": "U251 glioma cells", "parameters": "method as in PMID 29436625", "details": "24 h exposure, cited from earlier work"}, "[13]": {"system": "U87MG human glioblastoma cells", "parameters": "method as in PMID 22552443", "details": "24 h exposure, cited from earlier work"}, "[14]": {"system": "SGC7901 human gastric adenocarcinoma cells", "parameters": "method as in PMID 21042755", "details": "120 μg/mL (i.e., ca. 0.74 mM), 24 h exposure; cited from earlier work"}, "[15]": {"system": "breast cancer MCF-7 cells", "parameters": "method as in PMID 32286702", "details": "24 h exposure; read-out: Concentration lowering viability of MCF-7 cells to 50%; cited from earlier work"}, "[16]": {"system": "breast cancer HCC-70 cells", "parameters": "method as in PMID 32286702", "details": "24 h exposure; read-out: Concentration lowering viability of HCC-70 cells to 50%; cited from earlier work"}, "HO8910 xenograft tumors": {"system": "HO8910 xenograft tumors", "parameters": "method as in PMID 16675472", "details": "administered intragastrically; cited from earlier work"}, "SKOV-3 xenograft tumors": {"system": "SKOV-3 xenograft tumors", "parameters": "method as in PMID 16675472", "details": "administered intragastrically; cited from earlier work"}, "SKOV-3 cells [17]": {"system": "SKOV-3 cells", "parameters": "method as in PMID 16675472", "details": "cited from earlier work"}, "[18]": {"details": "in the concentration range studied"}}, "data": [{"compound": "C=CCS[S+]([O-])CC=C", "note": "(stereo not drawn) [Allicin, S-(prop-2-en-1-yl)prop-2-ene-1-sulfinothioate]", "values": [{"measurement": "Antioxidant activity, ABTS^● Decolorization", "setting": "[1]", "value": "−0.038 ± 0.020 mol Trolox equivalents (TE)/mol compound"}, {"measurement": "Antioxidant activity, DPPH^● Decolorization", "setting": "[2]", "value": "−0.023 ± 0.009 mol Trolox equivalents (TE)/mol compound"}, {"measurement": "Antioxidant activity, FRAP", "setting": "[3]", "value": "−0.0014 ± 0.0016 mol Trolox equivalents (TE)/mol compound"}, {"measurement": "IC50", "setting": "[4]; Homo sapiens, SK-OV-3, Neutral Red, read-out: IC50 SKOV-3", "value": 236, "unit": "µM"}, {"measurement": "Effect on viability of SKOV-3 cells", "setting": "[4]; [18]", "value": "did not significantly lower the viability"}, {"measurement": "IC50", "setting": "[5]; Homo sapiens, PEO1, Neutral Red, read-out: IC50 PEO1", "value": 282, "unit": "µM"}, {"measurement": "Effect on viability of PEO1 cells", "setting": "[5]; [18]", "value": "did not significantly lower the viability"}, {"measurement": "Concentration at which viability of MRC-5 cells was lowered", "setting": "MRC-5 fibroblasts; p < 0.05", "value": 100, "unit": "µM"}, {"measurement": "IC50", "setting": "MRC-5 fibroblasts; Homo sapiens, MRC5, Neutral Red, read-out: IC50 MRC-5", "value": 120, "unit": "µM"}, {"measurement": "Reaction rate constant with cumene peroxyl radicals", "setting": "[6]", "value": 2600, "unit": "M⁻¹ s⁻¹"}, {"measurement": "Termination of lipid peroxidation / prevention of induced microsomal lipid peroxidation", "setting": "[7]", "value": "ineffective"}, {"measurement": "SiHa cell viability (decreased to)", "setting": "[8]", "value": "ca. 60%"}, {"measurement": "IC50", "setting": "[9]; converted from μg/mL, read-out: Concentration diminishing survival of AGS cells to ca. 50%", "value": "~62", "unit": "µM"}, {"measurement": "Concentration diminishing survival of AGS cells to ca. 50%", "setting": "[9]", "value": 10, "unit": "µg/mL"}, {"measurement": "IC50", "setting": "[10]; converted from μg/mL, read-out: Concentration lowering survival of MDA-MB-231 cells by 50%", "value": "~111", "unit": "µM"}, {"measurement": "Concentration lowering survival of MDA-MB-231 cells by 50%", "setting": "[10]", "value": "about 18 μg/mL"}, {"measurement": "IC50", "setting": "[11]; converted from μg/mL, read-out: Concentration lowering survival of MCF-7 cells by 50%", "value": "~43", "unit": "µM"}, {"measurement": "Concentration lowering survival of MCF-7 cells by 50%", "setting": "[11]", "value": "about 7 μg/mL"}, {"measurement": "IC50", "setting": "SKOV-3 cells [12]; converted from μg/mL, read-out: Concentration reducing viability of SKOV-3 cells to 50%", "value": "430 to 490", "unit": "µM"}, {"measurement": "Concentration reducing viability of SKOV-3 cells to 50%", "setting": "SKOV-3 cells [12]", "value": "70 to 80", "unit": "µg/mL"}, {"measurement": "IC50", "setting": "U251 glioma cells; converted from μg/mL, read-out: Concentration reducing viability of U251 glioma cells to 50%", "value": 247, "unit": "µM"}, {"measurement": "Concentration reducing viability of U251 glioma cells to 50%", "setting": "U251 glioma cells", "value": "ca. 40 μg/mL"}, {"measurement": "IC50", "setting": "[13]; converted, read-out: Concentration reducing viability of U87MG glioblastoma cells to 50%", "value": 550, "unit": "µM"}, {"measurement": "Concentration reducing viability of U87MG glioblastoma cells to 50%", "setting": "[13]", "value": "ca. 90 /mL μg"}, {"measurement": "Decrease in the survival of SGC7901 cells", "setting": "[14]", "value": "ca. 25%"}, {"measurement": "IC50", "setting": "[15]", "value": "~15", "unit": "µM"}, {"measurement": "IC50", "setting": "[16]", "value": "~10", "unit": "µM"}]}, {"compound": "C=CCSSC[C@H](N)C(=O)O", "note": "[SAMC, S-allylmercaptocysteine]", "values": [{"measurement": "Development of xenograft tumors formed by HO8910 cells", "setting": "HO8910 xenograft tumors", "value": "inhibited"}, {"measurement": "Development of xenograft tumors formed by SKOV-3 cells", "setting": "SKOV-3 xenograft tumors", "value": "inhibited"}, {"measurement": "Migration of SKOV-3 cells and their invasiveness", "setting": "SKOV-3 cells [17]", "value": "inhibited"}]}]}
